From ChEMBL document CHEMBL4387750, “Backbone modifications in peptidic inhibitors of flaviviral proteases” (Bioorg Med Chem Lett, 2019)
Where a SMILES comes first, the peptide text is derived from it. [ ]: non-standard residue; d: D form. The star is where a group is joined. dPhg = N[C@@H](C(=O)O)c1ccccc1; Phg = N[C@H](C(=O)O)c1ccccc1; Bz = O=C(c1ccccc1)*

Tests used:
[1] = target: Genome polyprotein (dengue virus type 2) (UniProt P29990); assay: Inhibition of Dengue virus serotype 2 NS2B-NS3 protease at 50 uM preincubated with protein for 15 mins followed by Abz-Nle-Lys-Arg-Arg-Ser-3-(NO2)Tyr substrate addition and measured by continuous fluorometric analysis relative to control
[2] = target: Genome polyprotein (West Nile virus) (UniProt P06935); assay: Inhibition of West Nile virus NS2B-NS3 protease preincubated with protein for 15 mins followed by Abz-Gly-Leu-Lys-Arg-Gly-Gly-3-(NO2)-Tyr substrate addition and measured by continuous fluorometric analysis relative to control; design: concentration or dose not given beside the values
Genome polyprotein (West Nile virus), sequence (P06935 whole entry): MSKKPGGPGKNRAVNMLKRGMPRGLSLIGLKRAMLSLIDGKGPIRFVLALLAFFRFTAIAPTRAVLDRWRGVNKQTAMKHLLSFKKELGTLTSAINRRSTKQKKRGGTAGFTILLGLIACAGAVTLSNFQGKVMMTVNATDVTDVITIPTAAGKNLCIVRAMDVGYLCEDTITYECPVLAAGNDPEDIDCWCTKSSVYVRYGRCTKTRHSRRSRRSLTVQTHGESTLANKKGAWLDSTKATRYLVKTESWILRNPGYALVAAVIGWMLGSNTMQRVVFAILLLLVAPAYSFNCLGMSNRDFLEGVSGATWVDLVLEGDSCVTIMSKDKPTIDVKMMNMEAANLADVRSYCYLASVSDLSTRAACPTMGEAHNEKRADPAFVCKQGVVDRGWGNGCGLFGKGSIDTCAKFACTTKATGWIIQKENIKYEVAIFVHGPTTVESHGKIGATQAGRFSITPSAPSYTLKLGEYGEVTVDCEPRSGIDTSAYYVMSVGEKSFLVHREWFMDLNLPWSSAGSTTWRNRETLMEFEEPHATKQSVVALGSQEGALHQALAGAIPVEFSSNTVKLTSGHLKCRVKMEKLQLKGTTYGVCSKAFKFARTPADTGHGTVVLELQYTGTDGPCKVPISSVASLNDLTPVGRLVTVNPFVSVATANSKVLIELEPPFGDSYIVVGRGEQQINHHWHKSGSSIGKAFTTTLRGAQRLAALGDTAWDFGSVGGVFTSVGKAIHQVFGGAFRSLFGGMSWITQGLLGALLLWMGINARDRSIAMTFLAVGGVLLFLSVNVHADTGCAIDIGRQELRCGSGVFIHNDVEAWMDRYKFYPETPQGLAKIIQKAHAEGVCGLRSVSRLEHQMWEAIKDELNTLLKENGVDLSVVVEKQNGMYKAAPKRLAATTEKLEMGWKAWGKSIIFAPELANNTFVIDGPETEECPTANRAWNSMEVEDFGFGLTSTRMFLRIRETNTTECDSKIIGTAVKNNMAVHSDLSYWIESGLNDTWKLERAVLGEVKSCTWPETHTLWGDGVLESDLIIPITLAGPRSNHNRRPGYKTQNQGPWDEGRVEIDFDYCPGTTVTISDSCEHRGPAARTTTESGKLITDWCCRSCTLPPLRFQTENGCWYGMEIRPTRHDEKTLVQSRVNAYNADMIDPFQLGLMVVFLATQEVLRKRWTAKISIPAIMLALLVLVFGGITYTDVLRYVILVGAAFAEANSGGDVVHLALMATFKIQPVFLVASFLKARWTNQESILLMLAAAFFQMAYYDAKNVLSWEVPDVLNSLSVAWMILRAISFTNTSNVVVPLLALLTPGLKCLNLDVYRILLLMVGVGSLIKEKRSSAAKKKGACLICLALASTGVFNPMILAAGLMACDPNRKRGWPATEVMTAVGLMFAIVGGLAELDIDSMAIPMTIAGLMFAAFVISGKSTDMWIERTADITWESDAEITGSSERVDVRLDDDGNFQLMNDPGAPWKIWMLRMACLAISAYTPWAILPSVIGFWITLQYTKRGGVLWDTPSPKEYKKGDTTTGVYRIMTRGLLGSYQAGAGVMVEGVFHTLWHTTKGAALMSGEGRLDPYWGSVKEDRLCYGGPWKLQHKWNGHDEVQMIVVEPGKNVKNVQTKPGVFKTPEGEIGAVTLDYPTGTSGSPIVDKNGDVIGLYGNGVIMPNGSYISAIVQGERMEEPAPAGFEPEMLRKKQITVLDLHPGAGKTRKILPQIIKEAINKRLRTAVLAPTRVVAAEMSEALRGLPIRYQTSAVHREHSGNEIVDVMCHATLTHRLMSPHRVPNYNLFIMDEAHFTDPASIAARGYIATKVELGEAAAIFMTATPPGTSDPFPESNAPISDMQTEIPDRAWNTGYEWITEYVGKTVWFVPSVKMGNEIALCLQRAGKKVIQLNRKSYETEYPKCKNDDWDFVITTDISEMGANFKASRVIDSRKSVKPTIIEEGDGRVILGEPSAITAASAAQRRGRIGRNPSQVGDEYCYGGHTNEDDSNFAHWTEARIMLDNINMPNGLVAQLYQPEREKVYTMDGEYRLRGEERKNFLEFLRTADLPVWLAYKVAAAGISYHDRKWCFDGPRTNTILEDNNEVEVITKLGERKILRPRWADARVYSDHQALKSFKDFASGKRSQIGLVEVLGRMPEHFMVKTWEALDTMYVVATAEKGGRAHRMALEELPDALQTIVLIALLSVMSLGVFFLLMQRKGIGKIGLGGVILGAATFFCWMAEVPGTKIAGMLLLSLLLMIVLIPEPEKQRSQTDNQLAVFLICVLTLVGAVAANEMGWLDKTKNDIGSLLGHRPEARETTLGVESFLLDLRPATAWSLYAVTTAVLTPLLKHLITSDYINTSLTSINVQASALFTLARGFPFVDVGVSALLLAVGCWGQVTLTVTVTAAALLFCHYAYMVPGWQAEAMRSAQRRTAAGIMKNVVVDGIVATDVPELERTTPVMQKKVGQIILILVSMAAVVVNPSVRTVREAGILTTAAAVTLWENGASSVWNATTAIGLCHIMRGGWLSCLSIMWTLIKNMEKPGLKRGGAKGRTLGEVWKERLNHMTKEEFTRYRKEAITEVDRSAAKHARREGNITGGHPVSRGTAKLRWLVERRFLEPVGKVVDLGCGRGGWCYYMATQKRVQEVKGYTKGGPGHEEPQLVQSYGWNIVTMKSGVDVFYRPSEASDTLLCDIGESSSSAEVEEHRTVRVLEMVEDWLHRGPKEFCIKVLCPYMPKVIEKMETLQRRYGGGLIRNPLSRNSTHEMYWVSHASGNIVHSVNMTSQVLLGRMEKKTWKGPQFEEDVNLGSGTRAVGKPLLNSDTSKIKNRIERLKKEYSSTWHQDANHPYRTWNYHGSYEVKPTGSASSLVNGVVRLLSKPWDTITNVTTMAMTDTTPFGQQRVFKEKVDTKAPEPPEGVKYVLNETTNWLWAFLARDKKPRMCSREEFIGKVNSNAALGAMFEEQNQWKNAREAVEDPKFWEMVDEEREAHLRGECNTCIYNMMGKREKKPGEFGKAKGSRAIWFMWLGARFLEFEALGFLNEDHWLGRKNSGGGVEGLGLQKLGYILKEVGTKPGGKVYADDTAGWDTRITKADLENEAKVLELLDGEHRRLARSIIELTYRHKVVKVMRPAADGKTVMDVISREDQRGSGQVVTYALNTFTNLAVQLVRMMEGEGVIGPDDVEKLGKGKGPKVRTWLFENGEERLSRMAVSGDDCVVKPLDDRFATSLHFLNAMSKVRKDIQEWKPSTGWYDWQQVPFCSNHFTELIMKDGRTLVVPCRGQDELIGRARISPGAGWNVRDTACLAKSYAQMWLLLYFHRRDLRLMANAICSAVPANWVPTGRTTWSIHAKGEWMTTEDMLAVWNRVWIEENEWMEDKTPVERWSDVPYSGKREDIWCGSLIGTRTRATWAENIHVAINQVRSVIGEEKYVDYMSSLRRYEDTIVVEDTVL

[3] = target: Prothrombin (Homo sapiens) (UniProt P00734); assay: Inhibition of human thrombin at 25 uM preincubated with protein for 15 mins followed by boc-Val-Pro-Arg-AMC substrate addition and measured after 10 mins by continuous fluorometric analysis relative to control
Trypsin [4] = target: T1, Trypsin (Homo sapiens, UniProt P07477+P07478+P35030); assay: Inhibition of trypsin (unknown origin) at 50 uM preincubated with protein for 15 mins followed by boc-Val-Pro-Arg-AMC substrate addition and measured by continuous fluorometric analysis relative to control; type: protein assay
Genome polyprotein [5] = target: Genome polyprotein (dengue virus type 2, UniProt P29990); assay: Inhibition of Dengue virus serotype 2 NS2B-NS3 protease preincubated with protein for 15 mins followed by Abz-Nle-Lys-Arg-Arg-Ser-3-(NO2)Tyr substrate addition and measured by continuous fluorometric analysis
Genome polyprotein [6] = target: Genome polyprotein (West Nile virus, UniProt P06935); assay: Inhibition of West Nile virus NS2B-NS3 protease preincubated with protein for 15 mins followed by Abz-Gly-Leu-Lys-Arg-Gly-Gly-3-(NO2)-Tyr substrate addition and measured by continuous fluorometric analysis
Genome polyprotein (West Nile virus, UniProt P06935), sequence (P06935 1371-1501 limits assumed): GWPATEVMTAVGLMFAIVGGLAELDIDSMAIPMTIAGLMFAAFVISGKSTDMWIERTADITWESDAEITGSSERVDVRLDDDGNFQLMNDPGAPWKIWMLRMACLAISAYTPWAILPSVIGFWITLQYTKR
Genome polyprotein (West Nile virus, UniProt P06935), sequence (P06935 1502-2120 limits assumed): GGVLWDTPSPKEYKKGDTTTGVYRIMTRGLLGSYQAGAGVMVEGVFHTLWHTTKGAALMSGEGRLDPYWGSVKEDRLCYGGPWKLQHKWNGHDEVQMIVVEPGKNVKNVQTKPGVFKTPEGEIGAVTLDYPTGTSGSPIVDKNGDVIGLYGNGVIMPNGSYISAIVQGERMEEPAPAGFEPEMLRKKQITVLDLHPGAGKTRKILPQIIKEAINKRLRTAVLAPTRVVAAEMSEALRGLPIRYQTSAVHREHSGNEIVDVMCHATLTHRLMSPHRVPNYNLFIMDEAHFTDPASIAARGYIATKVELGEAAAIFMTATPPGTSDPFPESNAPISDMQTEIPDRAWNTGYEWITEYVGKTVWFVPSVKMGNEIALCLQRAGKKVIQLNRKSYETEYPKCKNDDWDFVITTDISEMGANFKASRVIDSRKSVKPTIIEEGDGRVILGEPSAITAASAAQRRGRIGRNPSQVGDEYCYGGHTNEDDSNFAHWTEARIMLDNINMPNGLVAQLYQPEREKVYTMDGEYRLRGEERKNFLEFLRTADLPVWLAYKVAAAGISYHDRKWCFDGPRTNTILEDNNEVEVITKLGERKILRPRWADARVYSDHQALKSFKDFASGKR

[7] = Metabolic stability in Sprague-Dawley rat liver microsomes assessed as compound degradation by measuring half life incubated for 120 mins by HPLC and UV analysis; type: ADME, Microsome; settings: for Stability: microsomes, 2 h
Trypsin [8] = target: T1, Trypsin; assay: Metabolic stability assessed as trypsin (unknown origin)-mediated drug degradation by measuring half life in pH 7.5 Tris buffer incubated up to 60 mins at 37 degC by HPLC and UV analysis; type: ADME, protein assay; settings: pH 7.5, 1 h
[9] = Metabolic stability assessed as alpha-chymotrypsin (unknown origin)-mediated drug degradation by measuring half life in pH 7.4 phosphate buffer incubated up to 60 mins at 37 degC by HPLC and UV analysis; type: ADME; settings: human; for Stability: buffer, pH 7.4, 1 h
[10] = Metabolic stability in Sprague-Dawley rat liver microsomes assessed as compound remaining after 120 mins by HPLC and UV analysis; type: ADME, Microsome; settings: read-out: Stability

Structure (SMILES): CN(C(=O)[C@H](CCCNC(=N)N)NC(=O)c1ccccc1)[C@@H](CCCCN)C(=O)N[C@@H](C(N)=O)c1ccccc1
- inhibition [1]: 36.3%
- inhibition [2]: < 5%
- inhibition [3]: < 5%
- inhibition (Trypsin [4]): < 5%

Structure (SMILES): CN(C(=O)c1ccccc1)[C@@H](CCCNC(=N)N)C(=O)N[C@@H](CCCCN)C(=O)N[C@@](C)(C(N)=O)c1ccccc1
- inhibition [1]: 93.9%
- IC50 (Genome polyprotein [5]): 3 µM
- inhibition [2]: 50.8%
- inhibition [3]: < 5%
- inhibition (Trypsin [4]): 10.9%

Structure (SMILES): N=C(N)NCCC[C@H](NC(=O)c1ccccc1)C(=O)N[C@@H](CCCCN)C(=O)N(CC(N)=O)c1ccccc1
- inhibition [1]: 28.9%
- inhibition [2]: 19.8%
- inhibition [3]: < 5%
- inhibition (Trypsin [4]): < 5%

Structure (SMILES): N=C(N)NCCCN(CC(=O)N[C@@H](CCCCN)C(=O)N[C@@H](C(N)=O)c1ccccc1)C(=O)c1ccccc1
- inhibition [1]: 32.7%
- inhibition [2]: 12.4%
- inhibition [3]: < 5%
- inhibition (Trypsin [4]): < 5%

Structure (SMILES): N=C(N)NCCC[C@H](NC(=O)c1ccccc1)C(=O)N[C@@H](CCCCN)C(=O)N[C@@H](C(N)=O)c1ccc(OCc2ccccc2)cc1
- inhibition [1]: 100%
- IC50 (Genome polyprotein [5]): 0.4 µM
- inhibition [2]: 101%
- IC50 (Genome polyprotein [6]): 0.8 µM
- inhibition [3]: 7.8%
- inhibition (Trypsin [4]): 18.4%
- Stability [7]: Stable
- Stability (Trypsin [8]): Stable

Structure (SMILES): N=C(N)NCCC[C@H](NC(=O)C(=O)c1ccccc1)C(=O)N[C@@H](CCCCN)C(=O)N[C@@H](C(N)=O)c1ccccc1
- inhibition [1]: 94%
- IC50 (Genome polyprotein [5]): 4.1 µM
- inhibition [2]: 43.2%
- inhibition [3]: < 5%
- inhibition (Trypsin [4]): 33.5%

Structure (SMILES): CN(C(=O)c1ccccc1)[C@@H](CCCNC(=N)N)C(=O)N[C@@H](CCCCN)C(=O)N[C@@H](C(N)=O)c1ccccc1
- inhibition [1]: 93.6%
- IC50 (Genome polyprotein [5]): 3.6 µM
- inhibition [2]: 48.4%
- inhibition [3]: < 5%
- inhibition (Trypsin [4]): < 5%
- Stability [7]: Stable
- Stability [9]: Stable
- Stability (Trypsin [8]): Stable

Structure (SMILES): CC(NC(=O)[C@H](CCCCN)NC(=O)[C@H](CCCNC(=N)N)NC(=O)c1ccccc1)(C(N)=O)c1ccccc1 (stereo partly drawn)
- inhibition [1]: 97.8%
- IC50 (Genome polyprotein [5]): 1.3 µM
- inhibition [2]: 59.8%
- IC50 (Genome polyprotein [6]): 24.3 µM
- inhibition [3]: 9.1%
- inhibition (Trypsin [4]): < 5%

Structure (SMILES): CN(C(=O)c1ccccc1)[C@@H](CCCNC(=N)N)C(=O)N[C@@H](CCCCN)C(=O)N[C@@H](C(N)=O)c1ccc(OCc2ccccc2)cc1
- inhibition [1]: 97.8%
- IC50 (Genome polyprotein [5]): 1.6 µM
- inhibition [2]: 92%
- IC50 (Genome polyprotein [6]): 7.1 µM
- inhibition [3]: 5.5%
- inhibition (Trypsin [4]): < 5%
- Stability [7]: Stable

Structure (SMILES): N=C(N)NCCC[C@H](NC(=O)c1ccccc1)C(=O)N[C@@H](CCCCN)C(=O)NC(C(N)=O)(c1ccccc1)c1ccccc1
- inhibition [1]: 20.6%
- inhibition [2]: 33.3%
- inhibition [3]: < 5%
- inhibition (Trypsin [4]): 45.5%

Structure (SMILES): C[C@]12CC[C@H]3[C@@H](CCC4=CC(=O)CC[C@@]43C)[C@@H]1CC[C@@H]2O [TESTOSTERONE]
- half-life ([7]; Sprague-Dawley, liver microsomes): 9 to 35 min

Structure (SMILES): N=C(N)NCCC[C@H](NC(=O)c1ccccc1)C(=O)N[C@@H](CCCCN)C(=O)N[C@@H](CC(N)=O)c1ccccc1
- inhibition [1]: 17.6%
- inhibition [2]: 12.6%
- inhibition [3]: < 5%
- inhibition (Trypsin [4]): 7.5%

Structure (SMILES): N=C(N)NCCC[C@H](NC(=O)c1ccccc1)C(=O)N(CCCCN)CC(=O)N[C@@H](C(N)=O)c1ccccc1
- inhibition [1]: < 5%
- inhibition [2]: 18.4%
- inhibition [3]: < 5%
- inhibition (Trypsin [4]): 10.6%

Structure (SMILES): C[C@@](NC(=O)[C@H](CCCCN)NC(=O)[C@H](CCCNC(=N)N)NC(=O)c1ccccc1)(C(N)=O)c1ccccc1
- inhibition [1]: 81.7%
- IC50 (Genome polyprotein [5]): 9.5 µM
- inhibition [2]: 47.4%
- inhibition [3]: < 5%
- inhibition (Trypsin [4]): 20.7%

Structure (SMILES): N=C(N)NCCC[C@H](N[C@@H](c1ccccc1)C(F)(F)F)C(=O)N[C@@H](CCCCN)C(=O)N[C@@H](C(N)=O)c1ccccc1
- inhibition [1]: 32.1%
- inhibition [2]: 6%
- inhibition [3]: < 5%
- inhibition (Trypsin [4]): < 5%

Structure (SMILES): N=C(N)NCCC[C@@H](NC(=O)[C@@H](N)Cc1ccc(O)cc1)C(=O)N[C@@H](Cc1ccccc1)C(=O)N[C@@H](Cc1ccccc1)C(N)=O (H-Y[dR]FF-NH2)
- remaining at 2 h [10]: 85%
- Stability [9]: Unstable
- Stability (Trypsin [8]): Stable

Structure (SMILES): N=C(N)NCCC[C@H](NC(=O)c1ccccc1)C(=O)N[C@@H](CCCCN)CC(=O)N[C@@H](C(N)=O)c1ccccc1
- inhibition [1]: 31.8%
- inhibition [2]: 14.6%
- inhibition [3]: < 5%
- inhibition (Trypsin [4]): < 5%

Structure (SMILES): N=C(N)NCCC[C@H](N[C@H](c1ccccc1)C(F)(F)F)C(=O)N[C@@H](CCCCN)C(=O)N[C@@H](C(N)=O)c1ccccc1
- inhibition [1]: 43.7%
- inhibition [2]: 24.6%
- inhibition [3]: < 5%
- inhibition (Trypsin [4]): < 5%

Structure (SMILES): CCC(NC(=O)[C@H](CCCCN)NC(=O)[C@H](CCCNC(=N)N)NC(=O)c1ccccc1)(C(N)=O)c1ccccc1 (stereo partly drawn)
- inhibition [1]: 35.2%
- inhibition [2]: 12.1%
- inhibition [3]: < 5%
- inhibition (Trypsin [4]): 8.7%

Structure (SMILES): N=C(N)NCCC[C@H](NC(=O)c1ccccc1)C(=O)N[C@@H](CCCCN)C(=O)N[C@H](C(N)=O)c1ccccc1 (Bz-Arg-Lys-[Phg]-NH2)
- inhibition [1]: 95%
- IC50 (Genome polyprotein [5]): 3.3 µM
- inhibition [3]: < 5%
- inhibition (Trypsin [4]): < 5%

Structure (SMILES): CN(C(=O)[C@H](CCCCN)NC(=O)[C@H](CCCNC(=N)N)NC(=O)c1ccccc1)[C@@H](C(N)=O)c1ccccc1
- inhibition [1]: 33%
- inhibition [2]: 36.7%
- inhibition [3]: < 5%
- inhibition (Trypsin [4]): < 5%

Structure (SMILES): N=C(N)NCCC[C@H](NC(=O)c1ccccc1)C(=O)N[C@@H](CCCCN)CC(=O)N(CC(N)=O)c1ccccc1
- inhibition [1]: 22.7%
- inhibition [2]: 17.7%
- inhibition [3]: < 5%
- inhibition (Trypsin [4]): < 5%

Structure (SMILES): C[C@](NC(=O)[C@H](CCCCN)NC(=O)[C@H](CCCNC(=N)N)NC(=O)c1ccccc1)(C(N)=O)c1ccccc1
- inhibition [1]: 99.1%
- IC50 (Genome polyprotein [5]): 0.6 µM
- inhibition [2]: 82.5%
- IC50 (Genome polyprotein [6]): 14.3 µM
- inhibition [3]: 6.5%
- inhibition (Trypsin [4]): 11.8%
- Stability [7]: Stable
- Stability [9]: Stable
- Stability (Trypsin [8]): Stable

Structure (SMILES): N=C(N)NCCC[C@H](NC(=O)c1ccccc1)C(=O)N[C@@H](CCCCN)C(=O)N[C@@H](C(N)=O)c1ccccc1 (Bz-Arg-Lys-[dPhg]-NH2)
- inhibition [1]: 99.3%
- IC50 (Genome polyprotein [5]): 3.8 µM
- inhibition [2]: 99%
- IC50 (Genome polyprotein [6]): 3.8 µM
- inhibition [3]: < 5%
- inhibition (Trypsin [4]): 12.5%
- Stability [7]: Stable
- half-life ([9]; alpha-chymotrypsin in phosphate buffer, pH 7.4): 11 min
- Stability (Trypsin [8]): Stable
